# Conditions: buffer; pH 7.4; 200.0 µM
row,solubility kinetic,Structure (SMILES)
1,< 0.4 µg/mL,CN1C(=O)/C(=C/c2ccc(OCc3ccc(F)cc3)cc2)N(C)C1=S
2,15.1 µg/mL,O=C(CSc1cccc[n+]1[O-])Nc1ccc(Cl)cc1F
3,> 39.9 µg/mL,COc1ccc(NC(=O)/C=C/C(=O)O)c([N+](=O)[O-])c1
4,> 48.1 µg/mL,S=C(Nc1ccc2c(c1)OCCO2)Nc1ccccc1Cl
5,44 µg/mL,Cc1onc(-c2ccccc2)c1CNS(=O)(=O)c1ccccc1
6,44.3 µg/mL,Cc1oc(-c2cccc(C(F)(F)F)c2)nc1CN1CCOCC1
7,32.3 µg/mL,CNC(=S)Nc1ccc([N+](=O)[O-])c(C)c1
8,> 49.4 µg/mL,CC1=C(C)CC(C(=O)NC(C)CCc2ccccc2)C(C(=O)O)C1 (stereo not drawn)
9,> 48.8 µg/mL,CCc1nnc(NC(=O)CS(=O)(=O)Cc2ccccc2)s1
10,0.8 µg/mL,Cn1cc(C(=O)C(=O)N2CCc3ccccc32)c2ccccc21
11,> 70.9 µg/mL,COC(=O)C1CCN(C(=O)c2ccc(OC)c(S(=O)(=O)N3CCCc4ccccc43)c2)CC1
12,> 49.9 µg/mL,CSc1nc(N2CCN(C)CC2)c2c(c1C#N)CC(C)(C)OC2
13,> 42.4 µg/mL,Cc1nnc(SCC(=O)N(C)C2CCCCC2)n1C
14,> 27.6 µg/mL,Nc1cccc(Nc2ccccc2)c1
15,48.5 µg/mL,O=C(Nc1cccc([N+](=O)[O-])c1)C1CC(=O)N(C2CCCCC2)C1 (stereo not drawn)
16,34.4 µg/mL,COc1ccc(Cl)cc1NC(=O)COC(=O)C1CC1
17,> 37.8 µg/mL,O=S(=O)(/C=C/c1ccccc1)N1CCNCC1
18,18.1 µg/mL,CCOc1cc(C=O)ccc1OCCn1c([N+](=O)[O-])cnc1C
19,> 46.3 µg/mL,CCCNC(=S)N1CCC(C(=O)c2ccc(F)cc2)CC1
20,> 41.6 µg/mL,O=C(N/N=C/c1ccc2nccnc2c1)c1ccncc1
21,7.1 µg/mL,Fc1ccc(SCCc2ccccn2)cc1
22,28 µg/mL,COc1ccc(OC)c(C(C)NC(=S)NC2CCCCC2)c1 (stereo not drawn)

row,solubility kinetic,Structure (SMILES)
1,> 52.8 µg/mL,O=C(NCCN1CCOCC1)C1CC(=O)N(c2ccc(Cl)cc2)C1 (stereo not drawn)
2,< 0.6 µg/mL,Cc1cc(C2CC(=O)Nc3ccccc3S2)c(C)s1 (stereo not drawn)
3,41.1 µg/mL,CSc1cccc(NS(=O)(=O)c2ccc(C(C)=O)cc2)c1
4,6.3 µg/mL,CCN(CC)c1ccc2c(C)c(Cl)c(=O)oc2c1
5,> 50.3 µg/mL,COc1ccc(CCNC(=O)c2noc(C)c2[N+](=O)[O-])cc1OC
6,16.9 µg/mL,O/N=C/c1cc(Br)cs1
7,> 57.9 µg/mL,O=C(CN1C(=O)c2ccccc2S1(=O)=O)Nc1ncc(Cl)cc1Cl
8,19 µg/mL,Clc1ccc2c(NCc3ccccc3)ccnc2c1
9,> 45.8 µg/mL,CCC(Oc1ccccc1F)C(=O)NCCCn1ccnc1 (stereo not drawn)
10,> 53.7 µg/mL,Cn1ccnc1SCC(=O)NCC(=O)Nc1ccc(F)c(F)c1F
11,0.3 µg/mL,Cc1ccc(Nc2nc(N)c([N+](=O)[O-])c(NCc3ccccc3)n2)cc1
12,35.6 µg/mL,CC(O)c1nc2ccccc2n1Cc1ccccc1 (stereo not drawn)
13,8.1 µg/mL,CCc1sc(C(=O)Nc2ccc(N3CCOCC3)cc2)cc1C
14,8.3 µg/mL,O=c1oc2ccccc2n1Cc1cccc(F)c1
15,> 41.6 µg/mL,Cc1ccc(SCC(=O)NC2CCCCCC2)cc1
16,5.4 µg/mL,CCN(CC)c1ccc(NC(=O)c2ccc3c(c2)OCO3)c(C)c1
17,41 µg/mL,CCCOc1ccc(N2C(=O)CC(NCC#N)C2=O)cc1 (stereo not drawn)
18,> 40.2 µg/mL,Nc1ccc(-c2nc3cc(N)ccc3n2CCO)cc1
19,44.5 µg/mL,CC(NC(=O)CCSCc1ccccc1F)c1ccccc1 (stereo not drawn)
20,1.5 µg/mL,COc1ccc(C2c3ccsc3CCN2C(=O)NC(C)(C)C)cc1 (stereo not drawn)
21,1.6 µg/mL,CCOc1ccccc1/C=C/c1nc2ccccc2[nH]c1=O
22,1.2 µg/mL,CC(=O)Nc1ccc(/C=C2\CCc3ccccc3C2=O)cc1

row,solubility kinetic,Structure (SMILES)
1,5.5 µg/mL,CCCn1c(SCC(=O)NC)nc2sc3c(c2c1=O)CCC3
2,46 µg/mL,CCc1noc(C)c1C(=O)OCC(=O)c1ccc(OC)c(OC)c1
3,> 43 µg/mL,O=S(=O)(Nc1ccccc1F)c1ccc(Cl)nc1
4,> 52.2 µg/mL,COc1ccc(NC(=O)C(CC(=O)O)Cc2ccc(Cl)cc2)cc1 (stereo not drawn)
5,> 48.8 µg/mL,CCN(CC)C(=O)N1CCN(S(=O)(=O)c2ccccc2)CC1
6,> 36.8 µg/mL,CCCC(=O)N1CCC(Cc2ccccc2)CC1
7,2.9 µg/mL,O=c1c2ccc(Cl)cc2nc2n1CC/C2=C\c1cccc(O)c1
8,42.2 µg/mL,Cc1cc(C)c(NC(=O)COC(=O)C2CCC2)c(Cl)c1
9,37.9 µg/mL,O=C(NCc1ccc(F)cc1)c1ccc(Br)o1
10,> 40.5 µg/mL,Cc1sc2nc(SCC(=O)O)[nH]c(=O)c2c1C
11,7.6 µg/mL,Cc1cc(C(=O)Nc2cc(Br)ccc2O)on1
12,2 µg/mL,CCC(C)c1ccccc1NC(=O)c1[nH]c(C)c(C(C)=O)c1C (stereo not drawn)
13,< 0.7 µg/mL,Oc1ccc2ccccc2c1C=Nc1ccccc1Br
14,> 42.5 µg/mL,Cc1cc(C)c(C(=O)NNC(=O)c2cccnc2)c(C)c1
15,29.5 µg/mL,O=C(NCc1ccccc1F)c1ccncc1
16,< 0.7 µg/mL,COC(=O)c1cc(OC)c(OC)cc1NC(=O)c1csc(C)c1
17,> 48.8 µg/mL,O=c1[nH]n2cc(-n3cc([N+](=O)[O-])cn3)cnc2c1Br
18,34.8 µg/mL,Cc1cccc(NC(=O)c2ccco2)c1C(=O)O
19,> 25.2 µg/mL,NC(=S)NC1CC2C=CC1C2 (stereo not drawn)
20,17.2 µg/mL,O=C(NCc1ccco1)/C(=C\c1ccccc1)NC(=O)c1ccccc1
21,> 51.1 µg/mL,CCCCC(=O)N1CC(=O)Nc2ccc(F)cc2C1c1ccccc1 (stereo not drawn)
22,28.5 µg/mL,CN(C)C(=S)Nc1cccc(F)c1

row,solubility kinetic,Structure (SMILES)
1,> 36.3 µg/mL,O=C1NC2=C(C(=O)CCC2)C(c2ccccc2)N1 (stereo not drawn)
2,< 0.7 µg/mL,O=C(Nc1ccccc1C(F)(F)F)c1cc2ccccc2o1
3,> 37.5 µg/mL,O=C(CCl)c1cc2c3c(c1)CC(=O)N3CCC2
4,< 0.7 µg/mL,Cc1ccc(CNC(=O)C(c2ccccc2)c2ccccc2)cc1
5,45.5 µg/mL,Cc1ncc(CN2CCC(CO)(Cc3ccccc3)CC2)s1
6,> 61.3 µg/mL,Cc1cc(NS(=O)(=O)c2ccc(NC(=O)/C=C/c3ccccc3)cc2)nc(C)n1
7,> 46.2 µg/mL,Cc1nn(C)c(Oc2ccccc2)c1CCNC(=O)CCl
8,56.7 µg/mL,CNc1c(-n2cc(C(=O)OC)c(C(=O)OC)c2C(=O)OC)c(=O)n(C)c(=O)n1C
9,32.2 µg/mL,Cc1cc(C(=O)O)c(C)n1Cc1ccncc1
10,> 50.5 µg/mL,O=C(COC(=O)c1cccnc1Cl)NCCc1ccc(F)cc1
11,10.6 µg/mL,COc1ccc(NC(=O)COC(=O)CCSc2ccccc2)cc1
12,> 43.3 µg/mL,Cn1c(SCC(=O)NC2CC2)nnc1-c1ccccc1
13,< 0.2 µg/mL,O=C1N/C(=N\c2ccccn2)SC1Cc1ccc(Cl)cc1 (stereo not drawn)
14,> 54.2 µg/mL,CC(N=C1NS(=O)(=O)c2ccccc21)C(=O)NCc1ccc(F)cc1 (stereo not drawn)
15,> 43.3 µg/mL,Cc1ccc2c(c1)N(CC(=O)NC1CCCC1)C(=O)CO2
16,31.3 µg/mL,O=C(NCc1ccccc1)N1CCOc2ccccc21
17,> 34.8 µg/mL,Cc1nc(N)c(Cc2ccccc2F)c(N)n1
18,44.5 µg/mL,CC(NCc1ccccc1Cl)C(=O)Nc1ccc(C#N)cc1 (stereo not drawn)
19,4.3 µg/mL,Cc1ccc(C(=O)Nc2ccc3c(c2)OCCO3)c(Cl)c1
20,> 58.3 µg/mL,O=[N+]([O-])c1cc(CS(=O)(=O)Oc2ccc(Cl)cc2)c(O)c([N+](=O)[O-])c1

row,Structure (SMILES),solubility kinetic
1,O=c1[nH]c2ccccc2o1,> 20.3 µg/mL
2,COc1ccc(CCC(=O)NCCc2cnc[nH]2)cc1,35.2 µg/mL
